Assay results published in patent US20230257372A1 (CHONG KUN DANG PHARMACEUTICAL CORP., priority 2020, published 2023).
pIC50: −log10 of the molar value. Read-outs that look alike come from different tables or passages of the source.

How the values were obtained:
[1] = target: T1, human recombinant HDAC6 (Homo sapiens, UniProt Q9UBN7); test: HDAC6 enzyme activity inhibition (HDAC Fluorimetric Drug Discovery Kit); type: biochemical
T1 construct: purchased Calbiochem Inc. 382180
T1 sequence (Q9UBN7 1-1215): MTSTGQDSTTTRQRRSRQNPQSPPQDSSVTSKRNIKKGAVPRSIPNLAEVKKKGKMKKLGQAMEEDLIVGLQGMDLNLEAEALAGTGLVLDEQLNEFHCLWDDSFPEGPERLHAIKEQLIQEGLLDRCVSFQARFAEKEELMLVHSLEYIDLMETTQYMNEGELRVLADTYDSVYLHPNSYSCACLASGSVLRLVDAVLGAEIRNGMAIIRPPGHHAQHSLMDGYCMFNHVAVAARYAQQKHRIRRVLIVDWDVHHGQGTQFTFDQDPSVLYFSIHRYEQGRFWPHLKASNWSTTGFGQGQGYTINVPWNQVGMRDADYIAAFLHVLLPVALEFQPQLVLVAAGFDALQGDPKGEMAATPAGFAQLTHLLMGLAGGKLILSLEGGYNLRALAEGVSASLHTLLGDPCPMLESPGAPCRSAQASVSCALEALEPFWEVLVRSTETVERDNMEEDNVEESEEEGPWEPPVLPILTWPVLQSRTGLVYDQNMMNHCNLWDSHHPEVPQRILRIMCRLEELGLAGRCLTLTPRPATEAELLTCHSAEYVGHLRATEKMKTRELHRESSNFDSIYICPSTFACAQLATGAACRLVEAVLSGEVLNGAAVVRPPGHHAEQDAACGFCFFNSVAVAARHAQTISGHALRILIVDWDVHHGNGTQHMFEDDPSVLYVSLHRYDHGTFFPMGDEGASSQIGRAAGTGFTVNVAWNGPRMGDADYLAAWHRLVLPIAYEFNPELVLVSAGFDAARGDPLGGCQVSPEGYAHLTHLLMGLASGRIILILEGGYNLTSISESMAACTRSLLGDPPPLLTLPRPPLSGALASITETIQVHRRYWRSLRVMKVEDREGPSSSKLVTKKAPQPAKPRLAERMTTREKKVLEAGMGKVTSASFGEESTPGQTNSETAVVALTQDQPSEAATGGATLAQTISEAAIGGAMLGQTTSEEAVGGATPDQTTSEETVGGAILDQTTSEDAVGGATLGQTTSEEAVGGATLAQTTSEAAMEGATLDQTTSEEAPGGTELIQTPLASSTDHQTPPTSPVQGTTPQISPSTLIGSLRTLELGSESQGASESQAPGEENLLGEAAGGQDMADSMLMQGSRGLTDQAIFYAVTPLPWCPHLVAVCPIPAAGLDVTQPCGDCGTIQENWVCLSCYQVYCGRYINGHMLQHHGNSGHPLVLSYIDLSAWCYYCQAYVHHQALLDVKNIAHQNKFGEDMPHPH
In short: (§1)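 Fluorimetric deacetylase read-out: after 30 min with Developer II following a 60 min, 30° C reaction of recombinant enzyme ([…]) with 10 μM substrate, across five-fold serial compound dilutions.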

[2] = target: T2, human recombinant HDAC1 (Homo sapiens, UniProt Q13547); test: HDAC1 enzyme activity inhibition (HDAC Fluorimetric Drug Discovery Kit); type: biochemical
T2 construct: purchased Enzo Life Science, Inc. BML-SE456
In short: as §1

[3] = human recombinant HDAC6, IC50 calculated with GraphPad Prism
[4] = human recombinant HDAC1, IC50 calculated with GraphPad Prism, read-out: HDAC1
[5] = human recombinant HDAC6, same protocol as HDAC1
[6] = human recombinant HDAC1, Fluor de Lys substrate, 30° C. 60 minutes, read-out: HDAC1

T2 sequence (Q13547 whole entry): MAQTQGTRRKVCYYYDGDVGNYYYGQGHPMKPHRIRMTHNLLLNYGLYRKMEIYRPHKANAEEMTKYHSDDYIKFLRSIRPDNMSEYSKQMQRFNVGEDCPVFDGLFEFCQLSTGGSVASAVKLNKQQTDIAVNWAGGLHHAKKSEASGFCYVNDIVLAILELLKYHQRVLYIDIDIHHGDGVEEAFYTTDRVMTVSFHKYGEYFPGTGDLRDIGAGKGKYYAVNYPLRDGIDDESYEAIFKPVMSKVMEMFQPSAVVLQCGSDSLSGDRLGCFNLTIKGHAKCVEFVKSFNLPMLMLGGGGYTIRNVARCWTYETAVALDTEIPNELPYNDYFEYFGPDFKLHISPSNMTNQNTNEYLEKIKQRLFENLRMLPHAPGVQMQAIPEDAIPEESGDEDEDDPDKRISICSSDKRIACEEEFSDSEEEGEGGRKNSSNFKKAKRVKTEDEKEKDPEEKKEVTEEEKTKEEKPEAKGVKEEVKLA

SMILES | HDAC6 selectivity (fold) ([1]; HDAC1 IC50 / HDAC6 IC50) | pIC50 [1, 3] | pIC50 [2, 4] | HDAC6 selectivity (fold) ([1]; HDAC6 over HDAC1) | pIC50 [1, 5] | pIC50 [2] | pIC50 [2, 6]
Fc1ccc(-c2cn(Cc3ccc(-c4nnc(C(F)F)o4)cc3)nn2)cc1N1C[C@@H]2C[C@H]1CN2 [Compound 4398, 2-(4-((4-(3-((1S,4S)-2,5-diazabicyclo[2.2.1]heptan-2-yl)-4-fluorophenyl)-1H-1,2,3-triazol-1-yl)methyl)phenyl)-5-(difluoromethyl)-1,3,4-oxadiazole] | 988 fold | 7.30 | < 4.30 |  |  |  | 
CN(C)Cc1c(-c2ccccc2)nnn1Cc1ccc(-c2nnc(C(F)F)o2)cc1F [Compound 4491, 1-(1-(4-(5-(difluoromethyl)-1,3,4-oxadiazol-2-yl)-2-fluorobenzyl)-4-phenyl-1H-1,2,3-triazol-5-yl)-N,N-dimethylmethanamine] | 433 fold | 6.94 | < 4.30 |  |  |  | 
FC(F)c1nnc(-c2ccc(Cn3cc([C@@H]4CCCN4C4CC5(COC5)C4)nn3)nc2)o1 [Compound 4027, (S)-2-(6-((4-(1-(2-oxaspiro[3.3]heptan-6-yl)pyrrolidin-2-yl)-1H-1,2,3-triazol-1-yl)methyl)pyridin-3-yl)-5-(difluoromethyl)-1,3,4-oxadiazole] | 10 fold | 5.30 | < 4.30 |  |  |  | 
O=C(O)c1cccc(-c2cn(Cc3ccc(-c4nnc(C(F)F)o4)cn3)nn2)c1 [Compound 3739] | 782 fold | 7.19 | < 4.30 |  |  |  | 
Fc1cc(-c2nnc(C(F)F)o2)ccc1Cn1cc(-c2ccc(N3CCN(C4CCOCC4)CC3)c(F)c2)nn1 [Compound 18327, 2-(difluoromethyl)-5-(3-fluoro-4-((4-(3-fluoro-4-(4-(tetrahydro-2H-pyran-4-yl)piperazin-1-yl)phenyl)-1H-1,2,3-triazol-1-yl)methyl)phenyl)-1,3,4-oxadiazole] |  |  |  | 502 fold | 7.00 | < 4.30 | 
CC(C)N1CCN(c2cc(-c3cn(Cc4ccc(-c5nnc(C(F)F)o5)cc4F)nn3)ccn2)CC1 [Compound 4635] |  |  |  | 2525 fold | 7.70 |  | < 4.30
CN1CCN(Cc2cccc(-c3cn(Cc4ccc(-c5nnc(C(F)F)o5)cc4F)nn3)c2)CC1 [Compound 4406, 2-(difluoromethyl)-5-(3-fluoro-4-((4-(3-((4-methylpiperazin-1-yl)methyl)phenyl)-1H-1,2,3-triazol-1-yl)methyl)phenyl)-1,3,4-oxadiazole] | 892 fold | 7.25 | < 4.30 |  |  |  | 
Fc1cc(-c2nnc(C(F)F)o2)ccc1Cn1cc(-c2cccc(N3CCN(C4COC4)CC3)c2F)nn1 [Compound 4580] |  |  |  | 1908 fold | 7.58 |  | < 4.30
CC(=O)N1CCC(Nc2ccc(F)c(-c3cn(Cc4ccc(-c5nnc(C(F)F)o5)cc4F)nn3)c2)CC1 [Compound 4437, 1-(4-((3-(1-(4-(5-(difluoromethyl)-1,3,4-oxadiazol-2-yl)-2-fluorobenzyl)-1H-1,2,3-triazol-4-yl)-4-fluorophenyl)amino)piperidin-1-yl)ethan-1-one] | 600 fold | 7.08 | < 4.30 |  |  |  | 
Fc1cc(-c2nnc(C(F)F)o2)ccc1Cn1cc(-c2ccc(CN3CC[C@H](F)C3)nc2)nn1 [Compound 17773, (S)-2-(difluoromethyl)-5-(3-fluoro-4-((4-(6-((3-fluoropyrrolidin-1-yl)methyl)pyridin-3-yl)-1H-1,2,3-triazol-1-yl)methyl)phenyl)-1,3,4-oxadiazole] |  |  |  | 769 fold | 7.19 |  | < 4.30
CCCCN1CC(c2cn(Cc3ccc(-c4nnc(C(F)F)o4)cn3)nn2)C1 [Compound 3953, 2-(6-((4-(1-butylazetidin-3-yl)-1H-1,2,3-triazol-1-yl)methyl)pyridin-3-yl)-5-(difluoromethyl)-1,3,4-oxadiazole] | 100 fold | 6.30 | < 4.30 |  |  |  | 
CCN1CCc2cc(-c3cn(Cc4ccc(-c5nnc(C(F)F)o5)cc4F)nn3)ccc2C1 [Compound 4359, 2-(difluoromethyl)-5-(4-((4-(2-ethyl-1,2,3,4-tetrahydroisoquinolin-6-yl)-1H-1,2,3-triazol-1-yl)methyl)-3-fluorophenyl)-1,3,4-oxadiazole] | 1182 fold | 7.37 | < 4.30 |  |  |  | 
FC(F)c1nnc(-c2ccc(Cn3cc(-c4cccc5cc[nH]c45)nn3)cc2)o1 [Compound 4081, 2-(4-((4-(1H-indol-7-yl)-1H-1,2,3-triazol-1-yl)methyl)phenyl)-5-(difluoromethyl)-1,3,4-oxadiazole] | 478 fold | 6.98 | < 4.30 |  |  |  | 
CCN1CCN(C(=O)c2cccc(-c3cn(Cc4ccc(-c5nnc(C(F)F)o5)cn4)nn3)c2)CC1 [Compound 4482, (3-(1-((5-(5-(difluoromethyl)-1,3,4-oxadiazol-2-yl)pyridin-2-yl)methyl)-1H-1,2,3-triazol-4-yl)phenyl)(4-ethylpiperazin-1-yl)methanone] | 943 fold | 7.28 | < 4.30 |  |  |  | 
Fc1c(-c2cn(Cc3ccc(-c4nnc(C(F)F)o4)cn3)nn2)cccc1N1CCN(CC2(F)CC2)CC1 [Compound 4600, 2-(difluoromethyl)-5-(6-((4-(2-fluoro-3-(4-((1-fluorocyclopropyl)methyl)piperazin-1-yl)phenyl)-1H-1,2,3-triazol-1-yl)methyl)pyridin-3-yl)-1,3,4-oxadiazole] |  |  |  | 1533 fold | 7.49 |  | < 4.30
Fc1cc(-c2nnc(C(F)F)o2)cnc1Cn1cc(-c2ccc3[nH]ncc3c2)nn1 [Compound 18920, 2-(6-((4-(1H-indazol-5-yl)-1H-1,2,3-triazol-1-yl)methyl)-5-fluoropyridin-3-yl)-5-(difluoromethyl)-1,3,4-oxadiazole] |  |  |  | 1190 fold | 7.38 |  | < 4.30
CN1CC(NCc2ccc(-c3cn(Cc4ccc(-c5nnc(C(F)F)o5)cn4)nn3)cc2)C1 [Compound 4567, N-(4-(1-((5-(5-(difluoromethyl)-1,3,4-oxadiazol-2-yl)pyridin-2-yl)methyl)-1H-1,2,3-triazol-4-yl)benzyl)-1-methylazetidin-3-amine] |  |  |  | 1333 fold | 7.43 |  | < 4.30
CC(C)N1CCN(c2cc(-c3cn(Cc4ccc(-c5nnc(C(F)F)o5)cn4)nn3)ccn2)CC1 [Compound 4592, 2-(difluoromethyl)-5-(6-((4-(2-(4-isopropylpiperazin-1-yl)pyridin-4-yl)-1H-1,2,3-triazol-1-yl)methyl)pyridin-3-yl)-1,3,4-oxadiazole] |  |  |  | 3246 fold | 7.81 |  | < 4.30
CN1CCc2ccc(-c3cn(Cc4ncc(-c5nnc(C(F)F)o5)cc4F)nn3)cc2C1 [Compound 19002, 2-(difluoromethyl)-5-(5-fluoro-6-((4-(2-methyl-1,2,3,4-tetrahydroisoquinolin-7-yl)-1H-1,2,3-triazol-1-yl)methyl)pyridin-3-yl)-1,3,4-oxadiazole] |  |  |  | 587 fold | 7.07 |  | < 4.30
CN(C)c1cccc(-c2cn(Cc3ccc(-c4nnc(C(F)F)o4)cc3)nn2)c1 [Compound 4323, 3-(1-(4-(5-(difluoromethyl)-1,3,4-oxadiazol-2-yl)benzyl)-1H-1,2,3-triazol-4-yl)-N,N-dimethylaniline] | 310 fold | 6.79 | < 4.30 |  |  |  | 
FC(F)c1nnc(-c2ccc(Cn3cc(-c4ccc(CNC5CCC5)cc4)nn3)nc2)o1 [Compound 4565, N-(4-(1-((5-(5-(difluoromethyl)-1,3,4-oxadiazol-2-yl)pyridin-2-yl)methyl)-1H-1,2,3-triazol-4-yl)benzyl)cyclobutanamine] |  |  |  | 6024 fold | 8.08 |  | < 4.30
